Measurements published in ChEMBL document CHEMBL1641539 (Bioorg Med Chem Lett, 2011).

Legend:
[1] = target: Inhibitor of nuclear factor kappa-B kinase subunit alpha (Homo sapiens) (UniProt O15111); experiment: Inhibition of human IKKalpha at 10 uM after 60 mins by TR-FRET assay; values are per cent of control
[2] = target: Dual specificity protein kinase CLK3 (Homo sapiens) (UniProt P49761); experiment: Inhibition of human CLK3 at 10 uM after 60 mins by TR-FRET assay; values are per cent of control
[3] = target: Platelet-derived growth factor receptor beta (Homo sapiens) (UniProt P09619); experiment: Inhibition of human PDGFRbeta at 10 uM after 60 mins by TR-FRET assay; values are per cent of control
[4] = target: Tyrosine-protein kinase TXK (Homo sapiens) (UniProt P42681); experiment: Inhibition of human Txk at 10 uM after 60 mins by TR-FRET assay; values are per cent of control
[5] = target: Mitogen-activated protein kinase 1 (Homo sapiens, UniProt P28482); experiment: Inhibition of human MAPK2 at 10 uM after 60 mins by TR-FRET assay; settings: values are per cent of control
[6] = target: Serine/threonine-protein kinase TBK1 (Homo sapiens) (UniProt Q9UHD2); experiment: Inhibition of human TBK1 at 10 uM after 60 mins by TR-FRET assay; values are per cent of control
[7] = target: Cyclin-dependent kinase 1/cyclin B (Homo sapiens) (UniProt P06493+P14635+Q8WWL7+O95067); experiment: Residual activity of human CDK1/cyclinB at 10 uM after 60 mins by TR-FRET assay
[8] = target: Epidermal growth factor receptor (Homo sapiens) (UniProt P00533); experiment: Inhibition of human EGFR at 10 uM after 60 mins by TR-FRET assay; settings: values are per cent of control
[9] = tested on: Epidermal growth factor receptor (Homo sapiens), P00533 [T790M]; experiment: Inhibition of human EGFR T790M mutant at 10 uM after 60 mins by TR-FRET assay; assay type: protein assay; settings: values are per cent of control
[10] = target: Protein kinase C eta type (Homo sapiens) (UniProt P24723); experiment: Inhibition of human PKCeta at 10 uM after 60 mins by TR-FRET assay; values are per cent of control
[11] = target: Rho-associated protein kinase 2 (Rattus norvegicus) (UniProt Q62868); experiment: Inhibition of rat ROCK-2 at 10 uM after 60 mins by TR-FRET assay; values are per cent of control
[12] = target: Glycogen synthase kinase-3 alpha (Homo sapiens) (UniProt P49840); experiment: Inhibition of human GSK3alpha at 10 uM after 60 mins by TR-FRET assay; values are per cent of control
[13] = target: RAC-alpha serine/threonine-protein kinase (Homo sapiens) (UniProt P31749); experiment: Inhibition of human PKBalpha at 10 uM after 60 mins by TR-FRET assay; values are per cent of control
[14] = target: Proto-oncogene tyrosine-protein kinase Src (Homo sapiens) (UniProt P12931); experiment: Inhibition of human Src (1 to 530) at 10 uM after 60 mins by TR-FRET assay; values are per cent of control
[15] = target: Tyrosine-protein kinase Fyn (Homo sapiens) (UniProt P06241); experiment: Inhibition of human Fyn at 10 uM after 60 mins by TR-FRET assay; settings: values are per cent of control
[16] = target: Ephrin type-A receptor 4 (Homo sapiens) (UniProt P54764); experiment: Inhibition of human EphA4 at 10 uM after 60 mins by TR-FRET assay; values are per cent of control
[17] = target: Tyrosine-protein kinase ABL1 (Homo sapiens) (UniProt P00519); experiment: Inhibition of human Abl at 10 uM after 60 mins by TR-FRET assay; values are per cent of control
[18] = target: Proto-oncogene tyrosine-protein kinase receptor Ret (Homo sapiens) (UniProt P07949); experiment: Inhibition of human Ret at 10 uM after 60 mins by TR-FRET assay; values are per cent of control
[19] = target: Casein kinase I isoform delta (Homo sapiens) (UniProt P48730); experiment: Inhibition of human CK1d at 10 uM after 60 mins by TR-FRET assay; values are per cent of control
[20] = target: Mitogen-activated protein kinase 9 (Homo sapiens, UniProt P45984); settings: 10 uM
Description: Inhibition of human JNK2alpha2 at 10 uM after 60 mins by TR-FRET assay

[21] = tested on: Proto-oncogene tyrosine-protein kinase receptor Ret (Homo sapiens), P07949 [V804M]; experiment: Inhibition of human Ret V804M mutant at 10 uM after 60 mins by TR-FRET assay; values are per cent of control
[22] = tested on: Platelet-derived growth factor receptor alpha (Homo sapiens), P16234 [D842V]; experiment: Inhibition of human PDGFRalpha D842V mutant at 10 uM after 60 mins by TR-FRET assay; values are per cent of control
[23] = target: Death-associated protein kinase 1 (Homo sapiens) (UniProt P53355); experiment: Inhibition of human DAPK1 at 10 uM after 60 mins by TR-FRET assay; values are per cent of control
[24] = target: NUAK family SNF1-like kinase 1 (Homo sapiens) (UniProt O60285); experiment: Inhibition of human ARK5 at 10 uM after 60 mins by TR-FRET assay; values are per cent of control
[25] = target: Ephrin type-A receptor 2 (Homo sapiens) (UniProt P29317); experiment: Inhibition of human EphA2 at 10 uM after 60 mins by TR-FRET assay; values are per cent of control
[26] = tested on: Fibroblast growth factor receptor 2 (Homo sapiens), P21802 [N549H]; experiment: Inhibition of human FGFR2 N549H mutant at 10 uM after 60 mins by TR-FRET assay; values are per cent of control
[27] = target: Serine/threonine-protein kinase PAK 5 (Homo sapiens) (UniProt Q9P286); experiment: Inhibition of human PAK5 at 10 uM after 60 mins by TR-FRET assay; values are per cent of control
[28] = target: Receptor-type tyrosine-protein kinase FLT3 (Homo sapiens) (UniProt P36888); experiment: Inhibition of human Flt3 at 10 uM after 60 mins by TR-FRET assay; values are per cent of control

Chain of Casein kinase I isoform delta (Homo sapiens) (P48730 whole entry, looked up, canonical isoform): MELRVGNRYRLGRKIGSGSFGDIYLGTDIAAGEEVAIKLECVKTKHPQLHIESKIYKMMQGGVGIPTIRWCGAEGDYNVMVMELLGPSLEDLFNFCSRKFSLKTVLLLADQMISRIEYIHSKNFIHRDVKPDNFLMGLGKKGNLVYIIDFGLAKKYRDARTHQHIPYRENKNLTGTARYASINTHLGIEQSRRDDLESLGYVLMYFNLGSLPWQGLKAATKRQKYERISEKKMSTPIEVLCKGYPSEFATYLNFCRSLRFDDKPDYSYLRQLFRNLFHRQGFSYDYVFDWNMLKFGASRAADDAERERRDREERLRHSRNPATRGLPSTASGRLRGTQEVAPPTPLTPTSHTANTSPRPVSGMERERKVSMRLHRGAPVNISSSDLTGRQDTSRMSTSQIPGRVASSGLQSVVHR
Chain of Platelet-derived growth factor receptor beta (Homo sapiens) (P09619 whole entry): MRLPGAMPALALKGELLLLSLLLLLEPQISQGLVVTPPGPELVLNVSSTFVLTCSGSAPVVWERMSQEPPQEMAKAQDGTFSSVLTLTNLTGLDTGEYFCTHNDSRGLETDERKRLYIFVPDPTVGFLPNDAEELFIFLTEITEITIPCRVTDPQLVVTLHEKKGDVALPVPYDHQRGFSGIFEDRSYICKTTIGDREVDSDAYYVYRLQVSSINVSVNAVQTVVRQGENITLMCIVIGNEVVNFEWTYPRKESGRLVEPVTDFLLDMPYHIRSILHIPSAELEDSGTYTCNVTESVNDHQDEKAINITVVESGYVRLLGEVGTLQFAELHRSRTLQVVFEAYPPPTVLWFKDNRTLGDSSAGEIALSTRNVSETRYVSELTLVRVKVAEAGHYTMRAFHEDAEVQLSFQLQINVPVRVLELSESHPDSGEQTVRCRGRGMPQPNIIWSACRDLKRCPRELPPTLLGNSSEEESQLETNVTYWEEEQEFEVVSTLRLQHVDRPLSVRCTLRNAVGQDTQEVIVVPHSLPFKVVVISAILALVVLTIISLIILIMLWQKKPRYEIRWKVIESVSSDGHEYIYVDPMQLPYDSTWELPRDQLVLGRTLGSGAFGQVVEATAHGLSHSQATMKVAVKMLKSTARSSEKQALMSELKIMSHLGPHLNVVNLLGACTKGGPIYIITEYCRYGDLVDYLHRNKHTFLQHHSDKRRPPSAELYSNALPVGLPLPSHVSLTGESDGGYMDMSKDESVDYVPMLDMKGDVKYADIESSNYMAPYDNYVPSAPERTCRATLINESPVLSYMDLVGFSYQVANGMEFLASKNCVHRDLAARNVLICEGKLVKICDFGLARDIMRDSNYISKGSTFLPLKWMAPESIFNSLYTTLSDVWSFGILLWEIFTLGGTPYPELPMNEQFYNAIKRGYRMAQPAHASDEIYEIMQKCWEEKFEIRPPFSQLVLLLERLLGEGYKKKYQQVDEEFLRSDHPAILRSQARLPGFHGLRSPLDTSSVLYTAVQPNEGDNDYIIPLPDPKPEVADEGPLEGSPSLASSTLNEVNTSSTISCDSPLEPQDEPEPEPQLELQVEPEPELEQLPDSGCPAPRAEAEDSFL
Chain of Tyrosine-protein kinase Fyn (Homo sapiens) (P06241 2-537 limits assumed): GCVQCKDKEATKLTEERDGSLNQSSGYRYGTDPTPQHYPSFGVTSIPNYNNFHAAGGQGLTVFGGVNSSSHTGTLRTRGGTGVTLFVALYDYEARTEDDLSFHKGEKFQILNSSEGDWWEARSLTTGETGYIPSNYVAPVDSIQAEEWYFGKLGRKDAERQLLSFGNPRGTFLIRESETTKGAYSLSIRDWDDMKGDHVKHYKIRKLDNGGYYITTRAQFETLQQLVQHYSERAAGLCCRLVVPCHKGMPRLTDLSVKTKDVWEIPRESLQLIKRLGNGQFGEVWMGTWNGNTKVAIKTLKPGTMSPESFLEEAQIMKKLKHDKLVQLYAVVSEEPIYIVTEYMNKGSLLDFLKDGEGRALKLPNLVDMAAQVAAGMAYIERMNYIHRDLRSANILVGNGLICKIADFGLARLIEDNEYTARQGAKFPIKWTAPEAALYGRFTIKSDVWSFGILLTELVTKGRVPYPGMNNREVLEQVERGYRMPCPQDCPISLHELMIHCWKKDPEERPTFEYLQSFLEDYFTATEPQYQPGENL
Chain of Serine/threonine-protein kinase PAK 5 (Homo sapiens) (Q9P286 whole entry, looked up): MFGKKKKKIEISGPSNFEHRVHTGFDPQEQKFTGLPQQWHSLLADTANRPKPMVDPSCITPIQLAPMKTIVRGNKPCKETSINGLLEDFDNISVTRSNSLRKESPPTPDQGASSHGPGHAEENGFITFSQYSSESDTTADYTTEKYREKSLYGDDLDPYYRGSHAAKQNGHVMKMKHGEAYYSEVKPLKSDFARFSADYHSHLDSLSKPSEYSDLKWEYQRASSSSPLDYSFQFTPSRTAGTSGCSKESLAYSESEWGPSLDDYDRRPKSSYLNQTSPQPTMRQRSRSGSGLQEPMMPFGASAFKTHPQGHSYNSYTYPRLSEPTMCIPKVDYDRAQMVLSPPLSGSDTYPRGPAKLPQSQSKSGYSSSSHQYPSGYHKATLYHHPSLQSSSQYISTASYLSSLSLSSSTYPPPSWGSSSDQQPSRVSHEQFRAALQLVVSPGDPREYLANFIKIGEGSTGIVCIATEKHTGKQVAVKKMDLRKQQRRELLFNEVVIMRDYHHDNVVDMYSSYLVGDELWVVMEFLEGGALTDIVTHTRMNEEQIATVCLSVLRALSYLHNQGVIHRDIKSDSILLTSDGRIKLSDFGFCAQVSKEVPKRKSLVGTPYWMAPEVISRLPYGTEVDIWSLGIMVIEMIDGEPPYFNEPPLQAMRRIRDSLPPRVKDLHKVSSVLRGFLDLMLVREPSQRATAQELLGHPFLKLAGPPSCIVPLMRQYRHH
Chain of Epidermal growth factor receptor (Homo sapiens), P00533 [T790M] (P00533 whole entry T790M): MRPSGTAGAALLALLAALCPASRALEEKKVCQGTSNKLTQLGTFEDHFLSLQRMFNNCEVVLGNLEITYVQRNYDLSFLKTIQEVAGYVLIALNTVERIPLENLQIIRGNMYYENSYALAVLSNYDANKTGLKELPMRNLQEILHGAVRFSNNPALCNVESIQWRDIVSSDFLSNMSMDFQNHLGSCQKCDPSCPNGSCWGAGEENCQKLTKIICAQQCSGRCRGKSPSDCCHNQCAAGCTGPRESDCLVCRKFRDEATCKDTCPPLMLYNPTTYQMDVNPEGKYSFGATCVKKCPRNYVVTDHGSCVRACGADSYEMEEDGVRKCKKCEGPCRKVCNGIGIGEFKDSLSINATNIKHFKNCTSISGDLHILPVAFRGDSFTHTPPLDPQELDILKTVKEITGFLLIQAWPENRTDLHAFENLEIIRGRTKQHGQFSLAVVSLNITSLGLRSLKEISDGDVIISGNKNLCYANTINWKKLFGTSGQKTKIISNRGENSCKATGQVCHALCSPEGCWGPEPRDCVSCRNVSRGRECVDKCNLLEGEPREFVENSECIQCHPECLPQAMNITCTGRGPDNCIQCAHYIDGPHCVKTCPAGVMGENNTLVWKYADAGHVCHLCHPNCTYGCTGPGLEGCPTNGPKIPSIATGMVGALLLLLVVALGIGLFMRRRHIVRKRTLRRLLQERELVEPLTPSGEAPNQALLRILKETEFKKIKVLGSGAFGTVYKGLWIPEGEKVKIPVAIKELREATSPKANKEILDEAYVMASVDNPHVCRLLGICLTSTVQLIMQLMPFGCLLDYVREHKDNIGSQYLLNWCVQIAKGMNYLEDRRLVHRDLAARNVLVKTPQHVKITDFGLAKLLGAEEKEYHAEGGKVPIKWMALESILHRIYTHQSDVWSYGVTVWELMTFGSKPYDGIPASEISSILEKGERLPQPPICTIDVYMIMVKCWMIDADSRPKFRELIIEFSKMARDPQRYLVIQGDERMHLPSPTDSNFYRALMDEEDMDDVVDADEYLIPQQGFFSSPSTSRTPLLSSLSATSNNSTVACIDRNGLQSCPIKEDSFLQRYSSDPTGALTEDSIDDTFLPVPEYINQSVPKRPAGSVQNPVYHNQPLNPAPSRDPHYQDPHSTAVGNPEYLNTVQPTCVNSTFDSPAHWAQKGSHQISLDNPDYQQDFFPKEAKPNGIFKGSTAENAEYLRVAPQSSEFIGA
Chain of Platelet-derived growth factor receptor alpha (Homo sapiens), P16234 [D842V] (P16234 whole entry D842V): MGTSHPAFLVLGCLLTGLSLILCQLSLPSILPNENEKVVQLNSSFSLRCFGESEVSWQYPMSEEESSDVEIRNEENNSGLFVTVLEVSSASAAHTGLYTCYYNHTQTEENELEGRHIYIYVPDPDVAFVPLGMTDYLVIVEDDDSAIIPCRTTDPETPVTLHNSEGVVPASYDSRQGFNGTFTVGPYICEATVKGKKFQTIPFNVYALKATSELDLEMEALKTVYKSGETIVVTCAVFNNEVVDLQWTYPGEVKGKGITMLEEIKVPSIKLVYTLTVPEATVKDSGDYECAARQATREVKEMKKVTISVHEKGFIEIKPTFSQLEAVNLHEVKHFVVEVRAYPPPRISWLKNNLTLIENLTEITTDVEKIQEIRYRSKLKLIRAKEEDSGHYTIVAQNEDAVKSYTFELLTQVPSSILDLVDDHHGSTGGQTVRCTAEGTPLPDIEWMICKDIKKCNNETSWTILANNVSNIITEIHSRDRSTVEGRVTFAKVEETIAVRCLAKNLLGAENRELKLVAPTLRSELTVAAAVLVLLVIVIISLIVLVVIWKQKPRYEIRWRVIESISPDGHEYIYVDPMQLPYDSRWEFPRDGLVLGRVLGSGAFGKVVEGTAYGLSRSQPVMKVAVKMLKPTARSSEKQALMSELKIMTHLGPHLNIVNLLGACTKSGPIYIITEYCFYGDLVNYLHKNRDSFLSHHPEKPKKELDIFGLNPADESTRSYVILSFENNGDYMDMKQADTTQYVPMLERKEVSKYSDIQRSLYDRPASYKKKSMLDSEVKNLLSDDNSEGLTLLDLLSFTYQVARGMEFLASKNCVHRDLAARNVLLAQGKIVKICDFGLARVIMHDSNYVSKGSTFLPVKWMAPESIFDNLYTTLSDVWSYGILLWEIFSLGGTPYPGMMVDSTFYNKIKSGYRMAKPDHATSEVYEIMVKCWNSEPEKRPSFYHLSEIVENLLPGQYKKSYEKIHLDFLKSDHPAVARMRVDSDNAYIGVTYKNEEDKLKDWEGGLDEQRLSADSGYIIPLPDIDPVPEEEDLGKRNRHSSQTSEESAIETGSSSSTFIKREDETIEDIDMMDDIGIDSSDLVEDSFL

Structure (SMILES): S=c1[nH]nc(-c2ccncc2)n1-c1ccc2ccccc2c1
- residual activity [1]: 100%
- residual activity [2]: 96%
- residual activity [3]: 99%
- residual activity [4]: 93%
- residual activity [5]: 114%
- residual activity [6]: 108%
- residual activity [7]: 101%
- residual activity [8]: 90%
- residual activity [9]: 98%
- residual activity [10]: 107%
- residual activity [11]: 101%
- residual activity [12]: 85%
- residual activity [13]: 99%
- residual activity [14]: 106%
- residual activity [15]: 116%
- residual activity [16]: 127%
- residual activity [17]: 113%
- residual activity [18]: 108%
- residual activity [19]: 96%
- inhibition [20]: 88%
- residual activity [21]: 116%
- residual activity [22]: 122%
- residual activity [23]: 108%
- residual activity [24]: 103%
- residual activity [25]: 102%
- residual activity [26]: 91%
- residual activity [27]: 101%
- residual activity [28]: 119%
